Assay results published in publication PMC8398714, “Synthesis and Evaluation of Biological Activities of Bis(spiropyrazolone)cyclopropanes: A Potential Application against Leishmaniasis” (Molecules, 2021).
Where two headings read alike, the source gives them in different places.

What was measured:
[1] = MTS cell viability assay on A-549 cells; type: cell-based; conditions: Homo sapiens; 48 h, 15-150 µM, mean ± SEM of triplicates
[2] = system: S. cerevisiae (W303 background); assay: Fungicidal activity (growth, OD600) on S. cerevisiae; type: cell-based, Saccharomyces cerevisiae; conditions: 24 h, OD600, concentrations 2.6 to 3000 µM, NA = no activity; for Inhibitory activity against S. cerevisiae W303 (IC50): unit not given; for IC50: Saccharomyces cerevisiae, unit inferred, read-out: Inhibitory activity against S. cerevisiae W303 (IC50)
Description: Next, we determined the IC50 of bis(spiropyrazolone)cyclopropanes on a different eukaryotic model: the classical budding yeast S. cerevisiae. Cells were exposed to the compounds at concentrations ranging from 2.6 to 3000 µM for 24 h. The OD600 was measured to assess cell growth. […] These resistances could be explained by the presence of the fungal cell wall, which could limit the entry of bis(spiropyrazolone)cyclopropanes 4 into the cell. Other mechanisms cannot be ruled out, such as structural differences in molecular targets.
The antimicrobial activities of the synthesized compounds were tested against yeast S. cerevisiae (background W303), as described by Teran et al.. Concentrations ranging from 2468.7 to 2.4 µM were assayed.

[3] = Cytotoxicity, MTT assay on RAW 264.7 macrophages; type: cell-based; conditions: mouse
Description: Raw 264.7 (ATCC® TIB-71™) was maintained in Dulbecco’s Modified Eagle Medium (DMEM) (Gibco, Invitrogen, Gibco, Carlsbad, CA, USA) supplemented with 10% fetal bovine serum (FBS) (Eurobio, Les Ulis, France) and 100 IU/mL penicillin + 100 μg/mL streptomycin (Gibco), at 37 °C in a 5% CO2 atmosphere. The medium was renewed once a week. The viability was determined using MTT (Thiazolyl Blue Tetrazolium Bromide) dye assay as described before for leishmanicidal activity assessment, with some variations. Here, 5 × 10^4 cells/well in a final volume of 100 µL were deposited into a 96-well plate, in triplicate. Saponin (2.4 mg/mL) and untreated cells were used as positive control and negative control, respectively. A stock solution was prepared in DMSO and immediately diluted in media to obtain different serial concentrations (100–0.01 µM). After 48 h exposure to the compounds, 10 µL/well of MTT (5 mg/mL MTT in PBS) were added, and the plate was incubated at 37 °C for 2 h in the dark. Cells were pelleted by centrifugation at 4400 rpm for 10 min and the media was removed. Then, 100 µL/well of DMSO were added and the absorbance at 570 nm was recorded; a reference wavelength of 630 nm was used for background subtraction.

[4] = Stability of solutions by spectroscopic measurements; type: physicochemical; conditions: DMSO solution; 100 μM in DMSO, room temperature
[5] = RAW cells, 48 h, MTT, read-out: Cytotoxicity CC50
[6] = Statistical Analyses S1, unrounded mean of CC50 in RAW cells, unit inferred, read-out: CC50 original values, x.1 (Mean)

In the case of COC(=O)c1ccc(C2[C@@]3(C(=O)N(c4ccccc4)N=C3C)[C@]23C(=O)N(c2ccccc2)N=C3C)cc1 (relative stereo) [4q, (5R*,6R*)-Methyl-4[4,10-dimethyl-2,8-diphenyl-2,3,8,9-tetraazadispiro[4.0.4.1]undeca-3,9-diene-1,7-dione-11-yl]benzoate], the IC50 [1] is reported as 85.1 ± 10.5 µM, the “Inhibitory activity against S. cerevisiae W303 (IC50)” value [2] is reported as “slight measurable effect” and the IC50 [2] is reported as 1090 ± 38.5 µM. The CC50 at 48 h [3, 5] was 4 ± 0.8 µM and the CC50 at 48 h [3, 6] was 4.01 µM.

Work on CSc1ccc(C2[C@]3(C(=O)N(c4ccccc4)N=C3C)[C@@]23C(=O)N(c2ccccc2)N=C3C)cc1 (relative stereo) [4u, (5R*,6R*)-11-(4-Thiomethylphenyl)-4,10-dimethyl-2,8-diphenyl-2,3,8,9-tetraazadispiro[4.0.4.1]undeca-3,9-diene-1,7-dione] yielded a CC50 at 48 h [3, 5] of 9.3 ± 3.4 µM and a CC50 at 48 h [3, 6] of 9.3 µM.

CC1=NN(c2ccccc2)C(=O)[C@@]12C(c1ccccc1[N+](=O)[O-])[C@@]21C(=O)N(c2ccccc2)N=C1C (relative stereo) [4c, (5R*,6R*)-11-(2-Nitrophenyl)-4,10-dimethyl-2,8-diphenyl-2,3,8,9-tetraazadispiro[4.0.4.1]undeca-3,9-diene-1,7-dione] showed a CC50 at 48 h [3, 5] of 2.3 ± 0.2 µM and a CC50 at 48 h [3, 6] of 2.26 µM.

With COc1ccccc1C1[C@@]2(C(=O)N(c3ccccc3)N=C2C)[C@]12C(=O)N(c1ccccc1)N=C2C (relative stereo) [4f, (5R*,6R*)-11-(2-Methoxyphenyl)-4,10-dimethyl-2,8-diphenyl-2,3,8,9-tetraazadispiro[4.0.4.1]undeca-3,9-diene-1,7-dione] the CC50 at 48 h [3, 5] was 12.8 ± 1.2 µM and the CC50 at 48 h [3, 6] was 12.8 µM.

CC1=NN(c2ccccc2)C(=O)[C@@]12C(c1cccc([N+](=O)[O-])c1)[C@@]21C(=O)N(c2ccccc2)N=C1C (relative stereo) [4d, (5R*,6R*)-11-(3-Nitrophenyl)-4,10-dimethyl-2,8-diphenyl-2,3,8,9-tetraazadispiro[4.0.4.1]undeca-3,9-diene-1,7-dione] gave an IC50 [1] of 94.8 ± 4.54 µM, a CC50 at 48 h [3, 5] of 3.9 ± 1.1 µM and a CC50 at 48 h [3, 6] of 3.92 µM.

COc1ccc(C2[C@@]3(C(=O)N(c4ccccc4)N=C3C)[C@]23C(=O)N(c2ccccc2)N=C3C)cc1 (relative stereo) [4e, (5R*,6R*)-11-(4-Methoxyphenyl)-4,10-dimethyl-2,8-diphenyl-2,3,8,9-tetraazadispiro[4.0.4.1]undeca-3,9-diene-1,7-dione] gave a CC50 at 48 h [3, 5] of 7.3 ± 2 µM and a CC50 at 48 h [3, 6] of 7.28 µM.

For CC1=NN(c2ccccc2)C(=O)[C@@]12C(c1ccccc1)[C@@]21C(=O)N(c2ccccc2)N=C1C (relative stereo) [4b, (5R*,6R*)-4,10-Dimethyl-2,8,11-triphenyl-2,3,8,9-tetraazadispiro[4.0.4.1]undeca-3,9-diene-1,7-dione], the IC50 [2] was 1380 ± 304 µM, the CC50 at 48 h [3, 5] was 3.4 ± 1.5 µM and the CC50 at 48 h [3, 6] was 3.44 µM. The half-life at 100 µM [4] was roughly 7.85 h.

In the case of CC1=NN(c2ccccc2)C(=O)[C@@]12C(c1cccc(F)c1)[C@@]21C(=O)N(c2ccccc2)N=C1C (relative stereo) [4t, (5R*,6R*)-11-(3-Fluorophenyl)-4,10-dimethyl-2,8-diphenyl-2,3,8,9-tetraazadispiro[4.0.4.1]undeca-3,9-diene-1,7-dione], the CC50 at 48 h [3, 5] is reported as 2.7 ± 0.7 µM and the CC50 at 48 h [3, 6] is reported as 2.75 µM.

With CC1=NN(c2ccccc2)C(=O)[C@@]12C(c1ccc(OC(F)(F)F)cc1)[C@@]21C(=O)N(c2ccccc2)N=C1C (relative stereo) [4s, (5R*,6R*)-11-(4-Trifluoromethoxyphenyl)-4,10-dimethyl-2,8-diphenyl-2,3,8,9-tetraazadispiro[4.0.4.1]undeca-3,9-diene-1,7-dione] the IC50 [1] was 78.5 ± 7.08 µM, the “Inhibitory activity against S. cerevisiae W303 (IC50)” value [2] was “slight measurable effect” and the IC50 [2] was 789 ± 37.3 µM. For the same compound, the CC50 at 48 h [3, 5] was 8.6 ± 3.2 µM and the CC50 at 48 h [3, 6] was 8.63 µM.

With CC1=NN(c2ccccc2)C(=O)[C@@]12C(c1ccc(C(F)(F)F)cc1)[C@@]21C(=O)N(c2ccccc2)N=C1C (relative stereo) [4r, (5R*,6R*)-11-(4-Trifluoromethylphenyl)-4,10-dimethyl-2,8-diphenyl-2,3,8,9-tetraazadispiro[4.0.4.1]undeca-3,9-diene-1,7-dione] the IC50 [1] was 78.7 ± 7.9 µM, the IC50 [2] was 1270 ± 119 µM and the CC50 at 48 h [3, 5] was 6.5 ± 0.9 µM. The CC50 at 48 h [3, 6] was 6.48 µM.

In the case of CC1=NN(c2ccccc2)C(=O)[C@@]12C(c1ccc([N+](=O)[O-])cc1)[C@@]21C(=O)N(c2ccccc2)N=C1C (relative stereo) [4k, (5R*,6R*)-11-(4-Nitrophenyl)-4,10-dimethyl-2,8-diphenyl-2,3,8,9-tetraazadispiro[4.0.4.1]undeca-3,9-diene-1,7-dione], the IC50 [1] is reported as 114 ± 6.37 µM, the CC50 at 48 h [3, 5] is reported as 3.3 ± 1 µM and the CC50 at 48 h [3, 6] is reported as 3.31 µM.
